Laboratory results from publication PMC6920794, “Evaluation of Novel Chalcone-Thiosemicarbazones Derivatives as Potential Anti-Leishmania amazonensis Agents and Its HSA Binding Studies” (Biomolecules, 2019).
Where two headings read alike, the source gives them in different places.

How the values were obtained:
[1] = system: L. amazonensis intracellular amastigotes; experiment: Intracellular amastigotes assay in infected macrophages; type: cell-based, Leishmania amazonensis
Experimental: Peritoneal macrophages were obtained BALB/c mice with cold Roswell Park Memorial Institute (RPMI) 1640 medium (Sigma Aldrich, St. Louis, MO, USA) supplemented as above. The cell suspension was adjusted to 1 × 10^6 macrophage/mL and incubated in a LAB-TEK 8-chamber slide (Nunc, Roskilde, Denmark) at 310K and 5% CO2 for 1 h. Non-adherent cells were removed and stationary-phase L. amazonensis promastigotes were added at a 3:1 parasite/macrophage ratio. The cultures were incubated for a further 4 h, and free parasites were removed. The chambers were washed, and the monolayers were incubated with the compounds for 48 h. Infected macrophages incubated only in the culture medium were used as controls to compare with the infected treated macrophages. […] The cultures were fixed in methanol and stained with the hematological system Instant Prov (Newprov®, Curitiba, Brazil). The slides were examined by light microscopy, and the number of infected macrophages and the mean number of parasites per macrophage were determined in 100 cells counted. The experiments were performed twice in triplicate. The percentage of infected macrophages was calculated by dividing the number of infected macrophages by the total number of macrophages (infected and uninfected) counted on the slides, multiplied by 100. To determine the infection index, the percentage of infected macrophages was multiplied by the mean number of parasites per macrophage. The percentage inhibition of infection was calculated by multiplying the difference between the infection index of the control and the compound by 100 and dividing by the infection index (IF) of the control using the Equation (1):IF = % infected cells × amastigotes number/total number of macrophages(1) The IC50 ± SD (SD: standard deviation) values were obtained by a sigmoidal model using Origin 6.0 with statistical error limits up to 10%. All tests were conducted in duplicate for each concentration, and two independent assays were performed.

[2] = biological target: T1, human serum albumin (HSA) (Homo sapiens, UniProt P02768); experiment: HSA binding, steady-state fluorescence quenching; conditions: for KSV Stern-Volmer quenching constant: PBS pH 7.4
T1 construct: purchased Sigma Aldrich, St. Louis, MO, USA
Experimental: The chemicals HSA and PBS buffer were purchased from Sigma Aldrich, St. Louis, MO, USA and the pH of buffer solution was checked (pH = 7.40). Jasco J-815 optical spectrometer (Jasco Easton, MD, USA) was used as equipment for steady-state fluorescence and circular dichroism (CD) spectra measurements and a thermostatic cuvette holder Jasco PFD-425S15F (Jasco Easton, MD, USA) was applied for control of temperature in the quartz cell (1.0 cm optical path). All spectra were recorded as the average of three scans with appropriate background corrections. For steady-state fluorescence measurements it was applied 305–450 nm range as emission wavelength (λexc = 295 nm) at 289K, 296K, 303K and 310K. First, it was recorded spectra for HSA solution (1.00 × 10^−5 M, in PBS) and then it was added manually the compound 5e, achieving final ligand concentrations of 0.35; 0.70; 1.05; 1.40; 1.74; 2.09; 2.44; and 2.78 × 10^−5 M.
In order to delete the possible absorption contribution of the compound 5e in the steady-state fluorescence results, inner filter effect was applied, according to the Equation 2 [33]:(2) Fcor=FObs10^[Aex+Aem/2] where Fcor and Fobs are the corrected and observed fluorescence intensity values, while Aex and Aem represent the absorbance value at the excitation (λ = 295 nm: ε = 6,235 cm^−1M^−1 in PBS) and emission wavelengths (λ = 340 nm: ε = 4,550 cm^−1M^−1 in PBS).
The steady-state fluorescence results for the interaction HSA:5e were analyzed according to Stern-Volmer (Equation 3), double logarithmic (Equation 4), van’t Hoff (Equation 5) and Gibbs’ free energy (Equation 6) approximations:(3) F0/F=1+Ksv[Q]=1+kqτ0[Q] (4) log(F0−F/F)=logKa+nlog[Q] (5) lnKa=−ΔH°/RT+ΔS°/R (6) ΔG°=ΔH°−TΔS° where F0 and F are the steady-state fluorescence intensities of HSA in the absence and presence of 5e, respectively. [Q], KSV and kq are the 5e concentration, Stern-Volmer quenching constant and bimolecular quenching rate constant, respectively. τ0 is the experimental fluorescence lifetime of HSA in the absence 5e (5.98 ± 0.15) × 10^−9 s. Ka and ƒ are the binding constant and fraction of the initial fluorescence intensity corresponding to the fluorophore which is accessible by the quencher (f ≈ 1.00), respectively. ΔH°, ΔS° and ΔG° are the enthalpy, entropy and Gibbs’ free energy change, respectively. T and R are the temperature (289 K, 296 K, 303 K and 310 K) and gas constant (8.3145 Jmol^−1K^−1), respectively. All quantitative values were expressed as “± SD” (obtained through three scans).

T1 sequence (P02768 25-609): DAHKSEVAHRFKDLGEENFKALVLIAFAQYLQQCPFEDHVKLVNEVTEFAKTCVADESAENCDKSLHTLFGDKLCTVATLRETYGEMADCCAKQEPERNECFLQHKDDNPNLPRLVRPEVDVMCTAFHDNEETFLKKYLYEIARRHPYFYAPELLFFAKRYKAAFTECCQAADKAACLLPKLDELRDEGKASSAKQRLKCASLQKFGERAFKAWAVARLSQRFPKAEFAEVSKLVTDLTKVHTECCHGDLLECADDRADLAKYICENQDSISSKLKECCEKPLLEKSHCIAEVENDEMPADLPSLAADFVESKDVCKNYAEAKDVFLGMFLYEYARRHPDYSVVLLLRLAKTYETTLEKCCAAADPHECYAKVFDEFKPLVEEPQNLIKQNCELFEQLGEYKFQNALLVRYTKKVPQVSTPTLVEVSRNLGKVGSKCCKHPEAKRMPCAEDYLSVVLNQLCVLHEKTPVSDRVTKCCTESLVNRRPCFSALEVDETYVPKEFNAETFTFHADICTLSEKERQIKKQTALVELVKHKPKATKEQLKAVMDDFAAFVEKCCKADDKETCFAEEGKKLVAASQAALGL

IC50 ([1]; Leishmania amazonensis, Peritoneal macrophage, in Mus musculus, 48 h, L. amazonensis-infected murine peritoneal macrophages, 48 h of culture): 4.47 ± 0.42 µM
n number of binding sites [2]: ~ 1
kq bimolecular quenching rate constant ([2]; 289 K): 4.15e+12 M⁻¹ s⁻¹
n number of binding sites ([2]; 289 K): 1.05 ± 0.01
ΔG° Gibbs' free energy change ([2]; 289 K): −26.1 kJmol^−1
KSV Stern-Volmer quenching constant ([2]; 289 K): 2.48 ± 0.52 ×10^4 M^−1
Kd ([2]; 289 K, double logarithmic approximation, read-out: Ka binding constant (converted)): 19.4 µM
kq bimolecular quenching rate constant ([2]; 296 K): 4.16e+12 M⁻¹ s⁻¹
n number of binding sites ([2]; 296 K): 1.07 ± 0.01
ΔG° Gibbs' free energy change ([2]; 296 K): −26.6 kJmol^−1
KSV Stern-Volmer quenching constant ([2]; 296 K): 2.49 ± 0.50 ×10^4 M^−1
Kd ([2]; 296 K, double logarithmic approximation, read-out: Ka binding constant (converted)): 20.6 µM
kq bimolecular quenching rate constant ([2]; 303 K): 4.34e+12 M⁻¹ s⁻¹
n number of binding sites ([2]; 303 K): 1.06 ± 0.01
ΔG° Gibbs' free energy change ([2]; 303 K): −27.1 kJmol^−1
KSV Stern-Volmer quenching constant ([2]; 303 K): 2.59 ± 0.51 ×10^4 M^−1
Kd ([2]; 303 K, double logarithmic approximation, read-out: Ka binding constant (converted)): 21.9 µM
kq bimolecular quenching rate constant ([2]; 310 K): 4.6e+12 M⁻¹ s⁻¹
n number of binding sites ([2]; 310 K): 1.05 ± 0.01
ΔG° Gibbs' free energy change ([2]; 310 K): −27.6 kJmol^−1
KSV Stern-Volmer quenching constant ([2]; 310 K): 2.75 ± 0.33 ×10^4 M^−1
Kd ([2]; 310 K, double logarithmic approximation, read-out: Ka binding constant (converted)): 22.8 µM
Kd ([2]; all temperatures, read-out: Ka binding constant (order of magnitude)): ~100 µM
decrease of HSA fluorescence emission ([2]; maximum addition of the ligand 2.78 × 10^−5 M, HSA 1.00 × 10^−5 M): about 50%
ΔH° enthalpy change ([2]; van't Hoff plot, 289–310 K): −5.79 ± 0.27 kJmol^−1
ΔS° entropy change ([2]; van't Hoff plot, 289–310 K): 7.02 ± 0.09 ×10^−2 kJmol^−1K^−1
SMILES: NC(=S)N/N=C(\C=C\c1ccc(Cl)cc1)c1ccccc1 [Compound 5e, (1E,2E)-3-(4′-chlorophenyl)-1-phenylprop-2-en-1-one thiosemicarbazone]
Selectivity Index (SI) ([1]; SI = LD50/IC50 intracellular amastigotes): 7.27
